Results from patent US20230302022A1, “PREVENTING OR MITIGATING CHEMOTHERAPY INDUCED ALOPECIA USING VITAMIN D” (priority 2016, published 2023).
“Also recorded” adds a separate entry of the source.

Assays:
HEKa cells = test: HEKa keratinocyte growth / viability assay, with and without chemotherapy drugs; format: cell-based, human
Protocol: All experiments were conducted in 96-well plate format. Each well contained the same amount of HEKa cells in about 100 μL of media (usually between 2,000-5,000 cell/well). Calcitriol was dissolved in ethanol to make a stock solution. The stock solution was serially diluted 1:2 in the growth media, covering a range of between 4.0 μg/mL to about 15.5 ng/mL (9 test concentrations). […] All experiments were conducted in duplicates.
In these experiments, a selected commercial drug was serially diluted, starting at a concentration 4-times higher than the final desired concentration for cell incubation.
The drug treatment period was usually three days. At the end of the three days, the background OD of the 96-well plate was read at 280 nm, before 20 μL of the “Substrate Cell Titer 96 Aqueous One Solution Reagent” (Promega) was added to each well. The plate was returned to the 37° C. incubator, and its OD at 490 nm was read each hour until an OD of approximately 1.5 was reached. The net OD increase was calculated by subtracting the pre-substrate OD reading.
The impact of the drug on the cells was calculated by comparing the OD at different concentrations in relation to the OD of the control wells (without the drug). The results of the Net OD as a function of drug concentration was plotted and used to determine ED50 values.
Then these pretreated cells were utilized to set up the cell based assay.
Three commonly used chemotherapy drugs (doxorubicin, cisplatin and erlotinib) were selected to evaluate calcitriol treated cells. […] In these experiments, the commercial drugs were serially diluted, starting at a concentration 4-times higher than the final desired concentration for cell incubation.

[1] = system: MIAC51 (chloroleukemia cells); test: Chloroleukemia (MIAC51) in rats: cure / survival under chemotherapy with topical calcitriol; format: in vivo, rat
Protocol: For experiments in which rats were transplanted with chloroleukemia, on Day 5 after birth, rats were randomly divided into three groups of 45 each. All rats received 1×10^5 chloroleukemic cell line MIAC51 (i.p.) in 0.1 mL of serum free (SF) RPMI. MIAC51 were cultured in RPMI 1640 supplemented with L-glutamine and 10% fetal bovine serum at 37° C. in a 5% CO2, 100% humidity incubator. Cells were grown to 50% confluency (1.5×106 mL) collected in 50 mL conical tubes, centrifuged at 600 g×10 min. at room temperature and resuspended in SF-RPMI at a concentration of 1×10^6/mL. Group 1 rats received no further treatment. Group 2 rats received topical vehicle and CTX on day 13. […] Topical applications were performed as described above.
On day 23 after birth, a sample of blood was taken from all rats and differentials performed. Rats with leukemia were sacrificed, rats without leukemia were kept and a second differential performed on day 31, at any point if leukemia was detected, animals were sacrificed by CO2 asphyxiation.
On day 5 after birth all rats received 1×105 MIAC51 intraperitoneally in 0.1 mL of serum free (SF) RPMI. MIAC51 were cultured in RPMI 1640 supplemented with L-glutamine and 10% fetal bovine serum at […] in a 5% CO2, 100% humidity incubator. Cells were grown to 50% confluency (1.5×106 mL) collected in 50 mL conical tubes, centrifuged at 600 g for 10 minutes at room temperature and resuspended in SF-RPMI at a concentration of 1×10^6/mL prior to injection.
[…]

[2] = system: squamous cell carcinoma and human prostate cell carcinoma; settings: 2.5 μg 3 doses daily for 3 days, followed by paclitaxel; cited from earlier work
[3] = system: SkBr-3 (breast adenocarcinoma cancer, Her2 overexpressed); test: Cell growth / viability assay, SkBr-3; format: cell-based
Protocol: The drug treatment period was usually three days. At the end of the three days, the background OD of the 96-well plate was read at 280 nm, before 20 μL of the “Substrate Cell Titer 96 Aqueous One Solution Reagent” (Promega) was added to each well. […] The net OD increase was calculated by subtracting the pre-substrate OD reading. The impact of the drug on the cells was calculated by comparing the OD at different concentrations in relation to the OD of the control wells (without the drug). The results of the Net OD as a function of drug concentration was plotted and used to determine ED50 values.

[4] = system: Long Evans and Sprague Dawley rats; test: Chemotherapy-induced alopecia (CIA) in the neonatal rat, topical calcitriol formulation; format: in vivo
Protocol: Specifically, Long Evans and Sprague Dawley rats with pups were purchased from Harlan Laboratories, Inc. They were housed and fed according to applicable animal handling rules and regulations. Pups were allowed to acclimate for 48 hours prior to the start of experiments. […] Rats were isolated from their littermates and mother for 6-hour periods of time. Subsequently, the treated area was cleaned with soap and water and pups were returned to their litters. On day 13, rats either received etoposide (1.5 mg/kg daily for 3 days) or cyclophosphamide (CTX) (37.5 mg/kg once) or combination cyclophosphamide (35 mg/kg once) and doxorubicin (2.5 mg/kg daily for 3 days). All chemotherapies were purchased from Sigma and were given intraperitoneally (i.p.) in a total volume of 0.1 mL. Alopecia was recorded 10 days after the last dose of chemotherapy.

[5] = 0.1 μg/mL calcitriol, low dosage levels
[6] = Long Evans rats, 0.2 μg total dose

C=C1/C(=C\C=C2/CCC[C@]3(C)[C@@H]([C@H](C)CCCC(C)(C)O)CC[C@@H]23)C[C@@H](O)C[C@@H]1O [Calcitriol, (5Z,7E)-9,10-secocholesta-5,7.10(19Hriene-1 a,33.25-triol]
protective effect against 5-FU (HEKa cells; 0.1 μg/mL calcitriol): protects; also recorded: mild protective effect; also recorded: some levels of protection | protective effect against doxorubicin (HEKa cells; 0.1 μg/mL calcitriol): did not appear to provide a significant protective effect | protective effect against gemcitabine (HEKa cells; 0.1 μg/mL calcitriol): mild protective effect | protective effect against irinotecan (HEKa cells; 0.1 μg/mL calcitriol): positive protective effect | protective effect against paclitaxel (Paxlitaxol) (HEKa cells; 0.1 μg/mL calcitriol): some protective effects | protective effect against tamoxifen (HEKa cells; 0.1 μg/mL calcitriol): weak | HEKa growth after prolonged calcitriol exposure (HEKa cells; 0.1 μg/mL calcitriol for two cell passages): stopped growing | protection against carboplatin (HEKa cells; [5]): moderate level of protection | protection against cisplatin (HEKa cells; [5]): moderate level of protection | protective effect against kinase inhibitor drugs (erlotinib, gefitinib, sorafenib, dasatinib, staurosporin) (HEKa cells; 0.1 μg/mL calcitriol, low drug dosage levels): protected the HEKa cells | interaction (synergy) between calcitriol and commercial drugs (HEKa cells; 0.1 μg/mL calcitriol, 5-FU, doxorubicin, tamoxifen, irinotecan, paclitaxel, carboplatin, staurosporin, vincristine, cisplatin, erlotinib, gemcitabine, imatinib, gefitinib, sorafenib, dasatinib): no interaction | chemoprotective effect: pre-treatment group vs simultaneous treatment group (HEKa cells; 0.1 μg/mL calcitriol, doxorubicin, cisplatin, erlotinib): nearly identical | stimulation of HEKa cell growth (HEKa cells; lowest levels of calcitriol (tested range about 0.008-2.0 μg/mL)): 10-20% | calcitriol concentration at which HEKa cell growth is inhibited (HEKa cells; tested range about 0.008-2.0 μg/mL): ≥ 1.0 µg/mL | Survival Rate, % ([1]; ADM, Paclitaxel and Etoposide, after Two Rounds): 80% | Survival Rate, % ([1]; CTX and ADM, after Two Rounds): 50% | Survival Rate, % ([1]; CTX, ADM and ARA-C, after Two Rounds): 78% | Survival Rate, % ([1]; CTX, Paclitaxel and Etoposide, after Two Rounds): 83% | Survival Rate, % ([1]; CTX, after Two Rounds of Chemotherapy): 25% | protection of the cancer cells from chemotherapy (cyclophosphamide) ([1]; Long Evans rats injected with MIAC51, topical calcitriol): does not protect the cancer cells from chemotherapy; also recorded: have not shown protection; also recorded: not protecting the cancer cells | effect on the cure rate associated with cyclophosphamide ([1]; chloroleukemia induced (MIAC51), calcitriol 1-3 μg/mL study): did not affect the cure rate | interference with the cure rate ([1]; cyclophosphamide and doxorubicin group, cure rate 50-55%): did not interfere with the cure rate | interference with the cure rate ([1]; cyclophosphamide group, cure rate 20-25%): did not interfere with the cure rate | interference with the cure rate ([1]; cyclophosphamide, doxorubicin and cytarabine group, cure rate 75-80%): did not interfere with the cure rate | interference with the cure rate ([1]; cyclophosphamide, paclitaxel and etoposide group, cure rate 78-83%): did not interfere with the cure rate | interference with the cure rate ([1]; doxorubicin, paclitaxel and etoposide group, cure rate 80-83%): did not interfere with the cure rate | effect on the efficacy of the chemotherapy agents ([1]; number of animals free from leukemia): did not affect the efficacy of the chemotherapy agents | tumor response [2]: significant tumor regression | effect of calcitriol on cell growth [3]: no significant growth promoting or growth inhibiting effects | effect of calcitriol on the cytotoxic effect of Doxorubicin [3]: does not appreciably alter; also recorded: did not appear to appreciably alter | protection from etoposide-induced alopecia ([4]; 0.1 μg of calcitriol topically for 6 hours, daily for 6 days): partial localized protection | protection from cyclophosphamide-induced alopecia ([4]; 0.3 μg calcitriol topically): full body protection | protection from etoposide-induced alopecia ([4]; 0.3 μg calcitriol topically): total body protection | protection from CTX-doxorubicin combination chemotherapy-induced alopecia [4, 6]: protects | protection from CTX-induced alopecia in rats injected with MIAC51 [4, 6]: protects | protection from cyclophosphamide (CTX)-induced alopecia [4, 6]: protects | protection from CIA in rats receiving etoposide ([4]; Sprague Dawley rats, topical formulation, two doses): protects from chemotherapy-induced alopecia (CIA) in a dose-dependent manner | protection against CIA in neonatal rat ([4]; about 0.2 μg (100 μL of 2 μg/mL topical solution)): protective | daily application prior to commencement of chemotherapy required to see any protective effect ([4]; rat model): at least four days | protection with 5 days of application prior to chemotherapy ([4]; rat model): moderate protection
